# Key:
# HIF = test: HRE-Luc luciferase reporter assay of HIF activity in transiently transfected 293T cells (evaluation of HIF prolyl hydroxylase inhibitors and EGLN3 isoforms); type: cell-based, human; settings: normoxia, even when full length EGLN3 protein or EGLN3 splice variant was over-expressed; MIMO 0.4 mM
# Procedure: As discussed above, the stability of HIF is controlled by proline hydroxylation, catalysed by the product of the EGLN3 gene which renders the HIF protein unstable. EGLN3 is only active in normoxia since the reaction that it catalyses requires oxygen.
# Plasmid CMV-SVFL1 expresses full length EGLN3. Plasmid CMV-SVFL2 expresses the EGLN3 splice variant.
# Three plasmid transfections were performed and pCIneo was used as the “stuffing”/control plasmid to fill the vacancies.
# Transfected 293 cells were incubated under normoxia till the end of the experiment.
# [1] = Hypoxia response of the referenced genes/sequences, summary in cross-reference Table 26; type: cell-based, human; settings: direction of expression change of the gene/sequence in response to hypoxia
# [2] = tested on: primary human macrophages; test: Custom gene array, macrophages exposed to hypoxia and/or IL-15; type: cell-based; settings: relative to no cytokine, 20% oxygen = 1
# Procedure: Gene expression levels were measured and compared using the custom gene array. In data analysis per-gene normalisation was set up such that expression values represent the fold-change compared with the expression in untreated normoxic cells. Genes which are increased in expression in response to TNFα by at least 2-fold, in either normoxic or hypoxic cells, are shown in Table 20. Genes which are decreased in expression in response to TNFα by at least 2-fold, in either normoxic or hypoxic cells, are shown in Table 21.
# The cytokine IL-15 is implicated in several disease in which macrophages and hypoxia both feature as elements of the inflammatory state, such as in atherosclerosis (Wuttge D M et al Am J Pathol. 2001 159:417-23) and rheumatoid arthritis (McInnes I B et al Immunol Today. 1998 19:75-9). Although the main target of IL-15 is T-cells effects have also been shown on monocytes (Badolato R et al Blood. 1997 90:2804-9). Therefore genes which respond to both hypoxia and IL-15 are especially likely to be relevant to disease processes and have utility in the design of therapeutic products. Genes which are increased in expression in response to IL-15 by at least 2-fold, in either normoxic or hypoxic cells, are shown in Table 24. Genes which are decreased in expression in response to IL-15 by at least 2-fold, in either normoxic or hypoxic cells, are shown in Table 25.
# [3] = tested on: primary human macrophages; test: Custom gene array, macrophages exposed to hypoxia and/or TNFα; type: cell-based; settings: relative to no cytokine, 20% oxygen = 1
compound,measurement,setting,value
CCOC(=O)c1ccc(O)c(O)c1 [EDB],HIF-PH inhibition,HIF,work as HIF-PH inhibitors
Alpha-2-macroglobulin,Hypoxia response,[1],Repression
Endothelin 1,Hypoxia response,[1],Repression
IL-15,"ABL expression (clone p1H8, Seq ID 182)",[2]; 0.1% oxygen,0.09
same,"Abstrakt expression (clone p1C14, Seq ID 384)",[2]; 0.1% oxygen,1.24
same,"Adipophilin expression (clone p1B6, Seq ID 314)",[2]; 0.1% oxygen,2.39
same,"Adipophilin expression (clone p1B7, Seq ID 314)",[2]; 0.1% oxygen,2.02
same,"Adipophilin expression (clone p1B8, Seq ID 314)",[2]; 0.1% oxygen,1.42
same,"Adipophilin expression (clone p1B9, Seq ID 314)",[2]; 0.1% oxygen,1.66
same,"Aldolase C expression (clone p1A19, Seq ID 260)",[2]; 0.1% oxygen,1.30
same,"D123 expression (clone p1C7, Seq ID 370)",[2]; 0.1% oxygen,0.90
same,"EST expression (clone p1D19, Seq ID 144)",[2]; 0.1% oxygen,1.39
same,"EST expression (clone p1H6, Seq ID 192)",[2]; 0.1% oxygen,0.67
same,"EST expression (clone p2A14, Seq ID 446)",[2]; 0.1% oxygen,0.51
same,"Fatty-acid-Coenzyme A ligase, long-chain 2 expression (clone p1J11, Seq ID 466)",[2]; 0.1% oxygen,1.29
same,"GAPDH expression (clone p1A11, Seq ID 254)",[2]; 0.1% oxygen,4.32
same,"Glucose phosphate isomerase expression (clone p1C6, Seq ID 368)",[2]; 0.1% oxygen,3.13
same,"Glycogen synthase 1 expression (clone p1G24, Seq ID 276)",[2]; 0.1% oxygen,0.55
same,"Hypoxia-inducible protein 2 expression (clone p1D8, Seq ID 272)",[2]; 0.1% oxygen,0.62
same,"Keratin 6B expression (clone p1K14, Seq ID 422)",[2]; 0.1% oxygen,0.11
same,"Lactate dehydrogenase A expression (clone p1A8, Seq ID 224)",[2]; 0.1% oxygen,2.29
same,"Lactate dehydrogenase A expression (clone p1A9, Seq ID 224)",[2]; 0.1% oxygen,1.83
same,"Metallothionein 2A expression (clone p1A23, Seq ID 266)",[2]; 0.1% oxygen,3.08
same,"Neutral sphingomyelinase (N-SMase) activation associated factor expression (clone p1J22, Seq ID 428)",[2]; 0.1% oxygen,0.11
same,"Proline 4-hydroxylase, alpha polypeptide II expression (clone p1B4, Seq ID 350)",[2]; 0.1% oxygen,1.34
same,"SCYA2 expression (clone p1P5, Seq ID 396)",[2]; 0.1% oxygen,1.37
same,"SCYA7 expression (clone p1J5, Seq ID 464)",[2]; 0.1% oxygen,1.61
same,"SCYA8 expression (clone p1I21, Seq ID 480)",[2]; 0.1% oxygen,1.55
same,"Triosephosphate isomerase 1 expression (clone p1A20, Seq ID 262)",[2]; 0.1% oxygen,1.22
same,"Uridine 5′ monophosphate hydrolase 1 expression (clone p1I7, Seq ID 50)",[2]; 0.1% oxygen,3.61
same,"cDNA: FLJ23019 fis, clone LNG00916 expression (clone p1J16, Seq ID 454)",[2]; 0.1% oxygen,7.27
same,"hypothetical protein FLJ10206 expression (clone p1J6, Seq ID 40)",[2]; 0.1% oxygen,0.18
same,"hypothetical protein FLJ22690 expression (clone p1H5, Seq ID 206)",[2]; 0.1% oxygen,1.59
same,"hypothetical protein MGC4549 expression (clone p1I12, Seq ID 152)",[2]; 0.1% oxygen,0.28
same,"ABL expression (clone p1H8, Seq ID 182)",[2]; 20% oxygen,1.22
same,"Abstrakt expression (clone p1C14, Seq ID 384)",[2]; 20% oxygen,0.40
same,"Adipophilin expression (clone p1B6, Seq ID 314)",[2]; 20% oxygen,0.37
same,"Adipophilin expression (clone p1B7, Seq ID 314)",[2]; 20% oxygen,0.30
same,"Adipophilin expression (clone p1B8, Seq ID 314)",[2]; 20% oxygen,0.23
same,"Adipophilin expression (clone p1B9, Seq ID 314)",[2]; 20% oxygen,0.41
same,"Aldolase C expression (clone p1A19, Seq ID 260)",[2]; 20% oxygen,0.35
same,"D123 expression (clone p1C7, Seq ID 370)",[2]; 20% oxygen,0.47
same,"EST expression (clone p1D19, Seq ID 144)",[2]; 20% oxygen,2.27
same,"EST expression (clone p1H6, Seq ID 192)",[2]; 20% oxygen,1.95
same,"EST expression (clone p2A14, Seq ID 446)",[2]; 20% oxygen,1.08
same,"Fatty-acid-Coenzyme A ligase, long-chain 2 expression (clone p1J11, Seq ID 466)",[2]; 20% oxygen,1.64
same,"GAPDH expression (clone p1A11, Seq ID 254)",[2]; 20% oxygen,0.52
same,"Glucose phosphate isomerase expression (clone p1C6, Seq ID 368)",[2]; 20% oxygen,0.57
same,"Glycogen synthase 1 expression (clone p1G24, Seq ID 276)",[2]; 20% oxygen,0.88
same,"Hypoxia-inducible protein 2 expression (clone p1D8, Seq ID 272)",[2]; 20% oxygen,1.25
same,"Keratin 6B expression (clone p1K14, Seq ID 422)",[2]; 20% oxygen,1.48
same,"Lactate dehydrogenase A expression (clone p1A8, Seq ID 224)",[2]; 20% oxygen,0.48
same,"Lactate dehydrogenase A expression (clone p1A9, Seq ID 224)",[2]; 20% oxygen,0.49
same,"Metallothionein 2A expression (clone p1A23, Seq ID 266)",[2]; 20% oxygen,1.26
same,"Neutral sphingomyelinase (N-SMase) activation associated factor expression (clone p1J22, Seq ID 428)",[2]; 20% oxygen,1.51
same,"Proline 4-hydroxylase, alpha polypeptide II expression (clone p1B4, Seq ID 350)",[2]; 20% oxygen,0.50
same,"SCYA2 expression (clone p1P5, Seq ID 396)",[2]; 20% oxygen,4.51
same,"SCYA7 expression (clone p1J5, Seq ID 464)",[2]; 20% oxygen,3.27
same,"SCYA8 expression (clone p1I21, Seq ID 480)",[2]; 20% oxygen,3.77
same,"Triosephosphate isomerase 1 expression (clone p1A20, Seq ID 262)",[2]; 20% oxygen,0.36
same,"Uridine 5′ monophosphate hydrolase 1 expression (clone p1I7, Seq ID 50)",[2]; 20% oxygen,4.98
same,"cDNA: FLJ23019 fis, clone LNG00916 expression (clone p1J16, Seq ID 454)",[2]; 20% oxygen,5.76
same,"hypothetical protein FLJ10206 expression (clone p1J6, Seq ID 40)",[2]; 20% oxygen,1.28
same,"hypothetical protein FLJ22690 expression (clone p1H5, Seq ID 206)",[2]; 20% oxygen,2.37
same,"hypothetical protein MGC4549 expression (clone p1I12, Seq ID 152)",[2]; 20% oxygen,1.64
IL-17,"Decidual protein induced by progesterone expression (clone p1C16, Seq ID 388)",[3]; 0.1% oxygen,0.51
same,"EST expression (clone p1H4, Seq ID 214)",[3]; 0.1% oxygen,0.58
same,"EST expression (clone p2A14, Seq ID 446)",[3]; 0.1% oxygen,0.40
same,"Fatty-acid-Coenzyme A ligase, long-chain 2 expression (clone p1J11, Seq ID 466)",[3]; 0.1% oxygen,1.28
same,"GAPDH expression (clone p1A11, Seq ID 254)",[3]; 0.1% oxygen,1.84
same,"GRO1 expression (clone p1I24, Seq ID 486)",[3]; 0.1% oxygen,1.28
same,"GRO2 expression (clone p1I19, Seq ID 482)",[3]; 0.1% oxygen,1.43
same,"Glucose phosphate isomerase expression (clone p1C6, Seq ID 368)",[3]; 0.1% oxygen,1.43
same,"Interleukin 8 expression (clone p1B14, Seq ID 252)",[3]; 0.1% oxygen,7.13
same,"Interleukin 8 expression (clone p1B15, Seq ID 252)",[3]; 0.1% oxygen,9.71
same,"Interleukin 8 expression (clone p1B16, Seq ID 252)",[3]; 0.1% oxygen,12.2
same,"Neutral sphingomyelinase (N-SMase) activation associated factor expression (clone p1J22, Seq ID 428)",[3]; 0.1% oxygen,0.11
same,"Plasminogen activator inhibitor, type 1 expression (clone p1B18, Seq ID 236)",[3]; 0.1% oxygen,0.78
same,"SCYA2 expression (clone p1P5, Seq ID 396)",[3]; 0.1% oxygen,0.58
same,"SCYA4 expression (clone p1K8, Seq ID 408)",[3]; 0.1% oxygen,0.83
same,"cDNA YI27F12 expression (clone p1E15, Seq ID 108)",[3]; 0.1% oxygen,0.56
same,"hypothetical protein FLJ10206 expression (clone p1J6, Seq ID 40)",[3]; 0.1% oxygen,0.23
same,"Decidual protein induced by progesterone expression (clone p1C16, Seq ID 388)",[3]; 20% oxygen,0.73
same,"EST expression (clone p1H4, Seq ID 214)",[3]; 20% oxygen,0.49
same,"EST expression (clone p2A14, Seq ID 446)",[3]; 20% oxygen,0.56
same,"Fatty-acid-Coenzyme A ligase, long-chain 2 expression (clone p1J11, Seq ID 466)",[3]; 20% oxygen,1.63
same,"GAPDH expression (clone p1A11, Seq ID 254)",[3]; 20% oxygen,2.60
same,"GRO1 expression (clone p1I24, Seq ID 486)",[3]; 20% oxygen,2.29
same,"GRO2 expression (clone p1I19, Seq ID 482)",[3]; 20% oxygen,2.26
same,"Glucose phosphate isomerase expression (clone p1C6, Seq ID 368)",[3]; 20% oxygen,2.14
same,"Glycogen synthase 1 expression (clone p1G24, Seq ID 276)",[3]; 20% oxygen,0.34
same,"Hypoxia-inducible protein 2 expression (clone p1D8, Seq ID 272)",[3]; 20% oxygen,0.44
same,"Interleukin 8 expression (clone p1B14, Seq ID 252)",[3]; 20% oxygen,9.34
same,"Interleukin 8 expression (clone p1B15, Seq ID 252)",[3]; 20% oxygen,7.36
same,"Interleukin 8 expression (clone p1B16, Seq ID 252)",[3]; 20% oxygen,9.52
same,"Plasminogen activator inhibitor, type 1 expression (clone p1B18, Seq ID 236)",[3]; 20% oxygen,0.49
same,"SCYA2 expression (clone p1P5, Seq ID 396)",[3]; 20% oxygen,2.12
same,"SCYA4 expression (clone p1K8, Seq ID 408)",[3]; 20% oxygen,2.48
same,"hypothetical protein FLJ10206 expression (clone p1J6, Seq ID 40)",[3]; 20% oxygen,0.22
